Reference: ChEMBL document CHEMBL5357002, “Heterodimers of Aromadendrane Sesquiterpenoid with Benzoquinone from the Chinese Liverwort Mylia nuda” (J Nat Prod, 2024)
Calls of active or inactive are those of the source. The rule behind the calls is not given here.

Key:
SH-SY5Y [1] = assay: Cytoprotective activity against glutamic acid induced injury in human SH-SY5Y cells assessed as increase in cell viability at 10 to 20 uM by MTT assay; format: functional, cell-based; conditions: dose 10-20 µM
SH-SY5Y [2] = assay: Induction of apoptosis in human SH-SY5Y cells assessed as necrotic cells incubated for 24 hrs by Annexin V-FITC/PI staining based flow cytometry analysis (reference value: 0.06%); format: toxicity, cell-based
SH-SY5Y [3] = assay: Induction of apoptosis in glutamic acid induced human SH-SY5Y cells assessed as necrotic cells incubated for 24 hrs by Annexin V-FITC/PI staining based flow cytometry analysis (reference value: 3.64%); format: functional
SH-SY5Y [4] = assay: Cytoprotective activity against glutamic acid induced injury in human SH-SY5Y cells assessed as decrease in ROS level at 10 uM by DCFH-DA staining based flow cytometry; format: functional, cell-based
SH-SY5Y [5] = assay: Induction of apoptosis in glutamic acid induced human SH-SY5Y cells assessed as viable cells incubated for 24 hrs by Annexin V-FITC/PI staining based flow cytometry analysis (reference value: 61.55%); format: functional
SH-SY5Y [6] = assay: Induction of apoptosis in glutamic acid induced human SH-SY5Y cells assessed as early apoptotic cells incubated for 24 hrs by Annexin V-FITC/PI staining based flow cytometry analysis (reference value: 34.60%); format: functional
SH-SY5Y [7] = assay: Induction of apoptosis in human SH-SY5Y cells assessed as late apoptotic cells incubated for 24 hrs by Annexin V-FITC/PI staining based flow cytometry analysis (reference value: 0.04%); format: toxicity, cell-based
SH-SY5Y [8] = assay: Cytoprotective activity against glutamic acid induced injury in human SH-SY5Y cells assessed as improvement in cell morphology at 10 uM by immunofluorescence analysis; format: functional, cell-based
[9] = Induction of apoptosis in human SH-SY5Y cells assessed as viable cells incubated for 24 hrs by Annexin V-FITC/PI staining based flow cytometry analysis (reference value: 99.87%); format: toxicity, cell-based; conditions: read-out: Activity
SH-SY5Y [10] = assay: Induction of apoptosis in glutamic acid induced human SH-SY5Y cells assessed as late apoptotic cells incubated for 24 hrs by Annexin V-FITC/PI staining based flow cytometry analysis (reference value: 0.21%); format: functional
SH-SY5Y [11] = assay: Induction of apoptosis in human SH-SY5Y cells assessed as early apoptotic cells incubated for 24 hrs by Annexin V-FITC/PI staining based based flow cytometry analysis (reference value: 0.03%); format: toxicity, cell-based

For COc1ccc(OC2=C(C)C(=O)[C@H]3[C@@H](C2=O)[C@@H]2C[C@H]3C(C)=C2[C@@H]2[C@H](CCC(C)=O)C2(C)C)cc1C, the Activity (SH-SY5Y [1]) was “Active”.

For COc1ccc(OC2=C(C)C(=O)[C@H]3[C@@H](C2=O)[C@@H]2C[C@@]3(C)C([C@@H]3[C@H](CCC(C)=O)C3(C)C)=C2C)cc1C, the Activity (SH-SY5Y [1]) was “Active”.

With COc1ccc(OC2=C(C)C(=O)[C@@H]3[C@H](C2=O)[C@H]2C[C@@H]3C([C@@H]3[C@H](CCC(C)=O)C3(C)C)=C2C)cc1C the Activity (SH-SY5Y [1]) was “Active”.

For COc1ccc(OC2=C(C)C(=O)[C@@H]3[C@H](C2=O)[C@H]2C[C@@H]3C(C)=C2[C@@H]2[C@H](CCC(C)=O)C2(C)C)cc1C, the Activity (SH-SY5Y [2]) was 3.59%, the Activity (SH-SY5Y [3]) was 4.49% and the Activity (SH-SY5Y [4]) was “Active”. The Activity (SH-SY5Y [5]) was 81.11%, the Activity (SH-SY5Y [6]) was 14.23% and the Activity (SH-SY5Y [7]) was 0.08%. The Activity (SH-SY5Y [8]) was “Active”, the viability at 24 h [9] was 96% and the Activity (SH-SY5Y [10]) was 0.17%. The Activity (SH-SY5Y [11]) was 0.39% and the Activity (SH-SY5Y [1]) was “Active”.

In the case of COc1ccc(OC2=C[C@@H]3C(=O)[C@](C)(C2=O)[C@@]2(C)C([C@@H]4[C@H](CCC(C)=O)C4(C)C)=CC[C@@H]32)cc1C, the Activity (SH-SY5Y [1]) is reported as “Active”.

For COc1ccc(OC2=C(C)C(=O)[C@H]3[C@@H](C2=O)[C@@H]2C[C@H]3C([C@@H]3[C@H](CCC(C)=O)C3(C)C)=C2C)cc1C, the Activity (SH-SY5Y [1]) was “Active”.
